Reference: patent publication US5336485A, “Method for protecting animals against tacrine induced cytotoxic injury using sterol compounds” (priority 1993, dated 1994)

Experiments:
[1] = Tissue distribution of alpha-tocopherol and alpha-tocopherol ester in rats; assay type: in vivo, rat
[2] = as above; assay type: in vivo, rat; details: 48 h after single dose
[3] = Blood alpha-TS content after oral dosing in humans; assay type: in vivo, human; details: 400 units per day, one month, three males
Excerpt: In a one month study with three human males aging from 35 to 62 years 400 units of alpha-tocopheryl succinate were taken per day. Subsequent blood samples were taken from each individual and analyzed for alpha-T and alpha-TS content. […] However, in select individuals, as determined possibly by ethnic origin or diet, tissue alpha-TS accumulation can occur with oral dosing. The absence of alpha-TS hydrolysis in the gut of the one individual in the study who had substantial amounts of alpha-TS in plasma may be attributed to the absence of duodenal secretions after oral alpha-TS administration (lack of dietary fats to stimulate duodenal secretions at the time of alpha-TS administration).

[4] = tested on: rat hepatocytes; assay: Cytotoxicity of various toxic insults (A23187, cadmium, O2, doxorubicin, CCl4, hypoxia) in rat hepatocytes; assay type: cell-based
Procedure: (§1) Only viable cells were monitored in the laboratory procedures.
(§2) In vitro experiments were performed to determine if alpha-TS could protect cells from different toxic insults. Under physiological conditions, rat hepatocytes were incubated with medium containing 25 μM alpha-TS. The hepatocytes were exposed to EMS, a potent mutagen and alkylating agent; the ionophore A23187, a membrane active compound that permits the equilibration of divalent cations across cell membranes; cadmium, a heavy metal, environmental contaminant, and known carcinogen who's mechanism of toxicity remains unknown; 95% O2, an excessive oxygen insult that produces an abundance of toxic oxygen free radicals and reactive oxygen intermediates in the cell; doxorubicin (adriamycin), a clinically important antitumor agent with cytotoxic effects proposed to result from its metabolic activation and the generation or reactive oxygen species; carbon tetrachloride (CCl4); and hypoxia (an absence of oxygen followed by reoxygenation).

[5] = as above; assay type: cell-based; details: rat, hepatocytes; Control (vehicle only, no insult), 25 μM alpha-TS; read-out: % Cell Death
Procedure: as §1, §2

[6] = tested on: epidermoid carcinomas; details: local administration; cited from earlier work
[7] = tested on: rat hepatocytes; assay: ATP content of rat hepatocyte suspensions; assay type: cell-based
Excerpt: It is well known that the succinate molecule is utilized by the cell to produce ATP energy. In the tricarboxylic acid cycle, succinate is oxidized by succinate dehydrogenase to produce ATP. Oxidation occurs in the mitochondria and the mitochondria can utilize both succinate formed in the mitochondria or succinate transported to the mitochondria. Increasing ATP production may enhance cellular repair processes as well as normal metabolic processes. For example, the cell's ability to remove free intracellular Ca^2+ during a toxic insult is related to ATP production. Succinate administration stimulates gluconeogenesis to form glucose 6-phosphate which is used for producing energy anaerobically (ATP formation through glycolysis) and for producing reducing equivalents (NADPH formation through the hexose monophosphate shunt needed for lipid and nucleotide biosynthesis and other biosynthetic reductions and enzymatic reactions, e.g., glutathione reductase). An in vitro experiment was conducted to determine the relationship between the release of succinate from alpha-TS and the cellular ATP level. The experiment was performed by incubating a tocopherol analog in a rat hepatocyte suspension and measuring the ATP level at the beginning and end of the test.
Rat hepatocyte suspensions were subjected to 50 mM EMS and the percentage of cell death, the percentage of intracellular K^+ (a metabolic parameter as discussed above), the depletion of ATP and the effect on lipid peroxidation were monitored.

[8] = tested on: canine hepatocytes; assay: Intracellular K+ of canine hepatocytes exposed to EMS; assay type: cell-based; details: 25 μM, 50 mM EMS
Excerpt: Medzhradsky, Biochem. Med. 13:164 (1975), has noted that the cell's ability to maintain its intracellular concentration of potassium (K^+) is an excellent indicator of the metabolic integrity of the cell. A concentration gradient exists for K^+ with greater concentrations found intracellularly. To maintain this gradient, the cell is dependent on the action of the Na^+ -K^+ ATPase pump and an adequate supply of ATP. As cellular ATP levels decline, the ATPase pump is unable to maintain the gradient resulting in the loss of intracellular K^+ by equilibration with the extracellular space. Because the maintenance of cellular metabolic processes is essential to the continual repair and survival of cells, organ systems, and organisms, the effect of alpha-TS on the metabolic integrity of rat liver cells during a toxic insult was investigated by measuring intracellular K^+ levels. FIGS. 2a-2b show the response of rat and canine hepatocytes, respectively, exposed to 50 mM EMS. […] The response curves shown in FIGS. 2a and 2b indicate that alpha-TS under physiological conditions can maintain the metabolic integrity of animal hepatocytes during a toxic insult.
as §1

[9] = (b) ip, peanut oil and ETOH, 1 dose 100 mg/kg, 24 h
[10] = (e) iv, liposomes, 1 dose 100 mg/kg, 24 h
[11] = (f) ip, olive oil, 7 daily doses

Cc1c(C)c2c(c(C)c1OC(=O)CCC(=O)O)CC[C@@](C)(CCC[C@H](C)CCC[C@H](C)CCCC(C)C)O2 [alpha-TS, d-alpha-tocopheryl succinate]
Liver Concentration Ester ([1]; 100 mg/kg ip, 24 h): 119 ± 16 nmol/g
alpha-TS, Blood [1, 9]: 7 nmoles/gm of Tissue
alpha-TS, Heart [1, 9]: 47 nmoles/gm of Tissue
alpha-TS, Kidney [1, 9]: 31 nmoles/gm of Tissue
alpha-TS, Liver [1, 9]: 119 nmoles/gm of Tissue
alpha-TS, Lung [1, 9]: 90 nmoles/gm of Tissue
alpha-TS, Plasma [1, 9]: 8 nmoles/gm of Tissue
alpha-TS, Blood [1, 10]: 6 nmoles/gm of Tissue
alpha-TS, Heart [1, 10]: 10 nmoles/gm of Tissue
alpha-TS, Liver [1, 10]: 322 nmoles/gm of Tissue
alpha-TS, Lung [1, 10]: 4843 nmoles/gm of Tissue
alpha-TS, Plasma [1, 10]: 5 nmoles/gm of Tissue
alpha-TS, Blood [1, 11]: 15 nmoles/gm of Tissue
alpha-TS, Brain [1, 11]: 6 nmoles/gm of Tissue
alpha-TS, Heart [1, 11]: 34 nmoles/gm of Tissue
alpha-TS, Kidney [1, 11]: 44 nmoles/gm of Tissue
alpha-TS, Liver [1, 11]: 161 nmoles/gm of Tissue
alpha-TS, Lung [1, 11]: 128 nmoles/gm of Tissue
accumulation of hepatic alpha-TS ([1]; oral): elimination of both the accumulation of hepatic alpha-TS and protection against CCl4 lethality
alpha-TS detection in tissue [2]: could not be detected
alpha-TS in plasma and erythrocytes [3]: Substantial amounts of alpha-TS in plasma and erythrocytes were observed for only one individual
% Cell Death ([4]; 95% Oxygen, 25 μM alpha-TS (no alpha-TS 57)): 23%
% Cell Death ([4]; CCl4 2.5 mM, 25 μM alpha-TS (no alpha-TS 63)): 38%
% Cell Death ([4]; Cadmium 0.1 mM, 25 μM alpha-TS (no alpha-TS 70)): 24%
% Cell Death ([4]; Doxorubicin 100 μM, 25 μM alpha-TS (no alpha-TS 62)): 28%
% Cell Death ([4]; Hypoxia 4 hrs N2 and 2 hrs O2, 25 μM alpha-TS (no alpha-TS 70)): 49%
% Cell Death ([4]; Ionophore A23187 5 μM, 25 μM alpha-TS (no alpha-TS 73)): 24%
protection from lethal effects of ionophore A23187 ([4]; rat hepatocytes, 25 μM, 5 μM A23187): protected rat hepatocytes from the lethal effects
cytotoxicity at 25 µM [5]: 21%
tumor regression [6]: dramatic regression
Rate of ATP Depletion ([7]; 25 μM): 1.0 ± 0.1 nmoles/10^6 cell/hr
Cellular ATP ([7]; 25 μM, 0 Hr): 20.1 ± .5 nmoles/10^6 cells
Cellular ATP ([7]; 25 μM, 6 Hr): 14.2 ± 0.8 nmoles/10^6 cells
Rate of ATP Depletion ([7]; 250 μM): 0.6 ± 0.3 nmoles/10^6 cell/hr
Cellular ATP ([7]; 250 μM, 0 Hr): 15.2 ± 1.6 nmoles/10^6 cells
Cellular ATP ([7]; 250 μM, 6 Hr): 11.7 ± 2.0 nmoles/10^6 cells
% Initial Intracellular [ATP] ([7]; 50 mM EMS, 5 Hrs, 25 μM (Table 15)): 45 ± 2 % Initial
intracellular K+ during EMS insult [8]: no loss of intracellular K+
